According to PMC8996404, “The pharmacokinetics of buserelin after intramuscular administration in pigs and cows” (BMC Veterinary Research, 2022):

How the values were obtained:
[1] = Plasma pharmacokinetics of buserelin after i.m. administration in cows; assay type: in vivo; conditions: for MRT: cow, 3 mg per cow
Protocol: (§1) The UPLC-MS/MS system (Waters Acquity UPLC and Waters Quattro Premier, Waters Co., USA) and the chromatographic column (Agilent Poroshell 120 EC-C18, 4.6 × 100 mm, 2.7 µm) were used in this study. The separation was performed with 0.1% formic acid in water (mobile phase solvent A) and 0.1% formic acid in acetonitrile (solvent B) with a flow rate of 0.6 mL/min. The gradient elution program was optimized as follow: 75% A (0–0.5 min), 10% A (5–7 min) 75% A (7.1–10 min). The sample was injected at a volume of 5 µL at 30℃. The mass spectrometer was operated in the positive ion detection mode with the capillary voltage set at 5.5 kV and the source temperature was 550 ℃. Others parameters were as follows: nebulizer gas pressure was 55 psi, ion source gas pressure was 60 psi, curtain gas pressure was 30 psi, declustering potential was 68 V, entrance potential was 10 V, and collision cell exit potential was 13 V.
(§2) Five healthy adult female Danish Landrance × Yorkshire × Duroc pigs (100–120 days, 50–60 kg, Ningbo Kuangdai Husbandry Co., Ltd. Ningbo China) and five healthy adult female Holstein cows (1.5–2 years, 440–500 kg, Ningbo Milk Group Co., Ltd. Ningbo China) were randomly selected to use in this research. All animals were examined by a local veterinarian with regard to physical, hematologic, and biochemical conditions during the two-week adaptation period. The two protocols used in this study were reviewed and approved by the Institutional Animal Care and Use Committee of China Agricultural University (pigs: 11605–20-D-007; cows: 11605–20-B-003). Buserelin injection solution (0.5 mg/mL, 10 mL) was acquired from Ningbo Sansheng Pharmaceutical Company. In order to avoid introducing bias results from feeding, each animal in the study fasted for approximately 12 h. Each pig received 1 mg buserelin injection solution (about 0.018 mg/kg), and each cow received 3 mg (about 0.0064 mg/kg). During the entire experiment, water was available ad libitum. Adverse symptoms were recorded and evaluated. Blood samples of 5 mL were collected into heparinized tube (pigs: anterior vena cava; cows: vena jugularis interna) at 0, 0.083, 0.167, 0.333, 0.5, 0.75, 1, 1.5, 2, 3, 4, 5, 6, 7, and 8 h after i.m. administration. The blood samples were centrifuged for 5 min at 2775 × g. Plasma samples were stored in -20 ℃ until analysis (within 21 days of collection).
(§3) Frozen plasma samples were thawed and vortexed, and 500 µL plasma and 1 mL 0.1% formic acid in acetonitrile were mixed together. After 10 min ultrasonic treatment, the samples were centrifuged for 10 min at 11,100 × g. The upper layer was collected and the remainder was treated twice. These two supernatants were added together, the samples were evaporated via nitrogen gas at 40 ℃, and redissolved in 2.5 mL 0.1% formic acid in acetonitrile-0.1% formic acid in water (1:3 v/v). After filtered through a 0.22 µm microbore cellulose membrane, the samples were collected and bottled to UPLC-MS/MS system for analysis.
(§4) Plasma concentrations of buserelin were analyzed using the established method, and the pharmacokinetic parameters were calculated via a non-compartmental analysis model 200 in WinNonlin software (WinNolin 8.1.0 Certara, Pharsight, Mountain View, CA, USA) and expressed in mean ± standard deviation (SD), and no statistical tests were applied.

[2] = Plasma pharmacokinetics of buserelin after i.m. administration in pigs; assay type: in vivo; conditions: for MRT: pig, 1 mg per pig
Protocol: as §1, §2, §3, §4

[3] = female, Holstein, im, single i.m. dose 3 mg per cow, plasma, mean ± SD, n = 5
[4] = single i.m. dose 3 mg per cow, plasma, mean ± SD, n = 5
[5] = female, Danish Landrance × Yorkshire × Duroc, im, single i.m. dose 1 mg per pig, plasma, mean ± SD, n = 5
[6] = single i.m. dose 1 mg per pig, plasma, mean ± SD, n = 5

CCNC(=O)[C@@H]1CCCN1C(=O)[C@H](CCCNC(=N)N)NC(=O)[C@H](CC(C)C)NC(=O)[C@@H](COC(C)(C)C)NC(=O)[C@H](Cc1ccc(O)cc1)NC(=O)[C@H](CO)NC(=O)[C@H](Cc1c[nH]c2ccccc12)NC(=O)[C@H](Cc1cnc[nH]1)NC(=O)[C@@H]1CCC(=O)N1 [buserelin, Buserelin] showed an MRT ([1]; female, Holstein, plasma, im, single i.m. dose 3 mg per cow, plasma, mean ± SD, n = 5, read-out: MRT0-t) of 1.85 ± 0.56 h, an MRT ([1]; female, Holstein, plasma, im, single i.m. dose 3 mg per cow, plasma, mean ± SD, n = 5, read-out: MRT0-∞) of 2.16 ± 0.7 h and a tmax ([1]; female, Holstein, im, single i.m. dose 3 mg per cow (about 0.0064 mg/kg), plasma, UPLC-MS/MS, non-compartmental, mean ± SD, n = 5) of 1.05 ± 0.27 h. The AUC(0-t) ([1]; female, Holstein, im, single i.m. dose 3 mg per cow, plasma, 0 to last measurement point, mean ± SD, n = 5) was 5.63 ± 1.86 ng·h/mL, the Cmax ([1]; female, Holstein, im, single i.m. dose 3 mg per cow, plasma, UPLC-MS/MS, non-compartmental, mean ± SD, n = 5) was 2.68 ± 0.36 ng/mL and the AUC(0-inf) [1, 3] was 5.99 ± 2.01 ng·h/mL. It also gave a CL/F [1, 3] of 9080 mL/min, a Vd/F [1, 3] of 840 ± 175 L and a half-life ([1]; female, Holstein, im, single i.m. dose 3 mg per cow, plasma, non-compartmental, mean ± SD, n = 5, read-out: t1/2 (elimination half-time) (converted)) of 1.13 ± 0.3 h. For the same molecule, the Cmax/D ([1]; single i.m. dose 3 mg per cow (about 0.0064 mg/kg), rate of Cmax to dosage, mean ± SD, n = 5) was 420.35 ± 58.40 ng/mL/mg/kg, the Adverse effects ([1]; single i.m. dose 3 mg per cow, n = 5) was “No adverse effects were observed” and the AUMClast [1, 4] was 11.23 ± 6.89 h × h × ng/mL. For the same molecule, the “ka (absorption rate constant)” value [1, 4] was 0.58 ± 0.17 h⁻¹, the tmax ([2]; female, Danish Landrance × Yorkshire × Duroc, im, single i.m. dose 1 mg per pig (about 0.018 mg/kg), plasma, UPLC-MS/MS, non-compartmental, mean ± SD, n = 5) was 0.57 ± 0.18 h and the AUC(0-t) ([2]; female, Danish Landrance × Yorkshire × Duroc, im, single i.m. dose 1 mg per pig, plasma, 0 to last measurement point, mean ± SD, n = 5) was 25 ± 6.93 ng·h/mL. For the same molecule, the Cmax ([2]; female, Danish Landrance × Yorkshire × Duroc, im, single i.m. dose 1 mg per pig, plasma, UPLC-MS/MS, non-compartmental, mean ± SD, n = 5) was 11 ± 2.04 ng/mL, the AUC(0-inf) [2, 5] was 25.8 ± 6.75 ng·h/mL and the CL/F [2, 5] was 686 mL/min. The Vd/F [2, 5] was 80.5 ± 43.9 L, the half-life ([2]; female, Danish Landrance × Yorkshire × Duroc, im, single i.m. dose 1 mg per pig, plasma, non-compartmental, mean ± SD, n = 5, read-out: t1/2 (elimination half-time) (converted)) was 1.29 ± 0.4 h and the MRT ([2]; female, Danish Landrance × Yorkshire × Duroc, plasma, im, single i.m. dose 1 mg per pig, plasma, mean ± SD, n = 5, read-out: MRT0-t) was 2.13 ± 0.27 h. For the same molecule, the MRT ([2]; female, Danish Landrance × Yorkshire × Duroc, plasma, im, single i.m. dose 1 mg per pig, plasma, mean ± SD, n = 5, read-out: MRT0-∞) was 2.35 ± 0.23 h, the Cmax/D ([2]; single i.m. dose 1 mg per pig (about 0.018 mg/kg), rate of Cmax to dosage, mean ± SD, n = 5) was 610.19 ± 79.93 ng/mL/mg/kg and the Adverse effects ([2]; single i.m. dose 1 mg per pig, n = 5) was “No adverse effects were observed”. The AUMClast [2, 6] was 59.59 ± 16.54 h × h × ng/mL and the “ka (absorption rate constant)” value [2, 6] was 0.48 ± 0.07 h⁻¹.
